Reference: patent US6642251B1, “Geometrically restricted 2-indolinone derivatives as modulators of protein kinase activity” (Sugen, Inc., priority 1998, dated 2003)

Test system: HUV-EC-C cells (human umbilical vein endothelial cells)
Assay: HUV-EC-C assay, VEGF-stimulated (VEGF HUVEC)
Assay type: cell-based
Description: The following protocol may also be used to measure a compound's activity against PDGF-R, FGF-R, VEGF, aFGF or Flk-1/KDR, all of which are naturally expressed by HUV-EC cells.
1. Wash and trypsinize HUV-EC-C cells (human umbilical vein endothelial cells, (American Type Culture Collection; catalogue no. 1730 CRL). Wash with Dulbecco's phosphate-buffered saline (D-PBS; obtained from Gibco BRL; catalogue no. 14190-029) 2 times at about 1 ml/10 cm^2 of tissue culture flask. Trypsinize with 0.05% trypsin-EDTA in non-enzymatic cell dissociation solution (Sigma Chemical Company; catalogue no. C-1544). The 0.05% trypsin is made by diluting 0.25% trypsin/l mM EDTA (Gibco; catalogue no. 25200-049) in the cell dissociation solution. Trypsinize with about 1 ml/25-30 cm^2 of tissue culture flask for about 5 minutes at 37° C. After cells have detached from the flask, add an equal volume of assay medium and transfer to a 50 ml sterile centrifuge tube (Fisher Scientific; catalogue no. 05-539-6).
2. Wash the cells with about 35 ml assay medium in the 50 ml sterile centrifuge tube by adding the assay medium, centrifuge for 10 minutes at approximately 200×g, aspirate the supernatant, and resuspend with 35 ml D-PBS. Repeat the wash two more times with D-PBS, resuspend the cells in about 1 ml assay medium/15 cm^2 of tissue culture flask. […]

Work on `COc1ccc2c(c1)C(CC(=O)O)C/C2=C1/C(=O)Nc2ccccc21` (centres unmarked) [Compound 11, [6-Methoxy-3-(2-oxo-1,2-dihydroindol-3-ylidene)-indan-1-yl]acetic Acid] yielded an IC50 of 50 nM.

`O=C1Nc2ccccc2/C1=C1\CCc2ccccc21` [Compound 10, 3-Indan-1-ylidene-1,3-dihydroindol-2-one] showed an IC50 of 330 nM.
